# Legend:
# [1] = system: Ps. fluorescens; assay: Lab media at optimum temperature (summary); format: cell-based, Pseudomonas fluorescens
# Procedure: For broth cultures and Bioscreen testing most bacteria were grown in Brain Heart Infusion (BHI, Oxoid, pH 7.4). Lactobacillus sake A10 was grown in de Man, Rogosa, Sharpe medium ([…], Oxoid). Yeasts were grown in Sabouraud Liquid medium (SLM, Oxoid). Most bacteria were cultured at 30° C. Lactic acid bacteria were grown on solid medium in enriched CO2 atmosphere. Clostridium species were grown in Reinforced Clostridial Medium (RCM) at 37° C. anaerobically. Brochothrix thermosphacta fungi and yeasts were grown at 25° C. Fungi were cultured on Malt Extract Agar (MEA, Oxoid).
# An automated Microbiology Reader Bioscreen C was used to measure growth curves of the strains in the presence and absence of APP. The Bioscreen C measures the development of turbidity (i.e. growth) kinetically by vertical photometry in 200 wells of a honeycomb microtitre plate, simultaneously. The system consists of a Bioscreen C analyser, which is an incubator and measurement unit, integrated with a PC, software (BioLink v 5.30), printer and a ‘Honeycomb 2’ cuvette multiwell plate. Growth curve data can be analysed within the BioLink software or exported to programs such as Excel.
# Broth culture media were dispensed in 270 μl volumes into the wells as directed. […] (depending on the micro-organism under investigation) with readings taken every 20 minutes after the trays were shaken. […]
# [2] = system: Ps. fluorescens 3756; assay: Chicken soup trial at 8° C.; format: cell-based, Pseudomonas fluorescens; details: chicken soup at 8° C.
# From the text: (§1) A local supermarket brand of cream of chicken soup was used as a model food system. 600 g packs were purchased from the local supermarket. This was a ‘fresh home-made type’ of soup that was stored in the chill cabinet, with a short shelf life. It was chosen because it is a rich, nutritious food system containing a range of food components including meat, dairy and vegetable.
# (§2) Ingredients were labelled as: chicken stock (water, duck fat, chicken, salt, flavourings, yeast extracts, pork gelatine, glucose syrup, vegetable concentrate, milk protein, sugar, malto-dextrin, vegetable oil, citric acid, lactose, chicken fat), ilk, chicken (9%), cream (8%), onion, potato, vegetable oil, modified maize starch, wheat flour, lemon juice, salt, white pepper. pH 5.912. Protein: 3.3%; carbohydrate: 4.7%; fat: 7.2%; fibre: 0.2%; sodium: 0.1%
# (§3) For the test the soup was mixed 2:1 in water (to facilitate sampling and mixing) and sterilised by autoclaving at 121° C. for 15 minutes. For each experiment the pH of the soup was recorded; this was between pH 5.79-5.88.
# For TCS010412/8 (which was incubated at 8° C.), APP batch number APP20010213 (concentration 169 mg APP/ml) was used to prepare tests containing 0, 2000 or 4000 ppm APP. 5 g of filter-sterilised APP stock solution was added to 94 g of soup, mixed and then 1 ml of a diluted inoculum suspension (cells or spores as appropriate) was added to give a test inoculum level of 10^3 cfu/g. The soup mixture was shaken vigorously to ensure homogeneous distribution of the APP and micro-organisms. The tests were tested by viable count and then incubated at 8° C. and tested on a twice-weekly basis.
# For TCS010521/8 (incubated at 8° C.), samples were prepared in 27.8 g quantities. 1.5 g of an APP stock solution was added, and the tests inoculated with 0.3 ml of a suitably diluted cell or spore suspension to give a final inoculum of ca. 10^3 cfu/g. APP was tested at 0, 500 and 1000 ppm, and batch number APP20010213 (at 169 mg/ml) was used. The tests were sampled by viable count and then incubated at 8° C. and tested on a twice-weekly basis.
# [3] = system: Salmonella Typhimurium DSMZ 554; assay: Preliminary growth inhibition test; format: cell-based; details: 37° C., 24 hour
# From the text: (§4) Antimicrobial activity was investigated using Salmonella Typhimurium and Listeria innocua.
# [4] = system: Listeria innocua; assay: Preliminary growth inhibition test; format: cell-based; details: 37° C., 20 hours
# From the text: as §4
# [5] = system: Ps. fluorescens 3756; assay: Chicken soup trial at 20° C.; format: cell-based, Pseudomonas fluorescens
# From the text: as §1, §2, §3
# For TCS010430/20 (incubated at 20° C.) samples were prepared in 18.8 g quantities, to which 1 g of a suitable filter-sterilised APP stock solution was added and an appropriately diluted 0.2 ml inoculum. Great care was again taken to ensure homogeneous distribution of the APP and micro-organisms. This test was sampled by viable count test on a daily basis.
# [6] = system: S. cerevisiae ATCC9763; assay: Test in apple juice; format: cell-based, Saccharomyces cerevisiae; details: 2000 ppm; apple juice (pH 3.42) at 25° C., TAJ010530
# Procedure: 8.9 ml apple juice samples (pH 3.42) were prepared and autoclaved. Batch number APP20010215 (at 138 mg/ml) was used to prepare filter-sterilised stock solutions for 1 ml addition to the juice to achieve 0, 1000, 2000 ppm APP. Tests were inoculated with 100 μl of an appropriately diluted overnight SLM broth of yeast culture or ascospore suspension of Byssochlamys spores prepared earlier. The tests were incubated at 25° C., and examined daily for signs of growth (e.g. turbidity, mycelium development).
# [7] = 2000 ppm, chicken soup at 20° C., TCSM010430, APP20010213
smiles,measurement,setting,value
"O=C1CC(CO)OC=C1O (stereo not drawn) [APP, Ascopyrone P]",Total inhibition (effect on growth of target organism by 2000 ppm APP),[1],Ps. fluorescens
same,Effect on growth,"[2]; 500 ppm, TCSM010521, APP215",Little effect with 500 ppm
same,Counts undetectable,"[2]; 1000 ppm, TCSM010521, APP215",At 1000 ppm counts undetectable >3 d
same,Total inhibition for,"[2]; 1000 ppm, TCSM010521, APP215",Total inhibition by 1000 ppm for >27 days.
same,Total inhibition for,"[2]; 2000 ppm, TCS010412, APP20010213",Total inhibition by 2000 and 4000 ppm for >60 days.
same,Total inhibition for,"[2]; 4000 ppm, TCS010412, APP20010213",Total inhibition by 2000 and 4000 ppm for >60 days.
same,Counts undetectable from day,"[2]; APP samples (2000, 4000 ppm), TCS010412, APP20010213",Counts undetectable from day 1 in APP samples
same,Inhibition of bacterial growth,[3]; 500 μg/ml APP,Intermediate inhibition
same,Inhibition of bacterial growth,[3]; 1000 μg/ml APP,strong inhibition
same,Inhibition of bacterial growth,"[3]; 2000 μg/ml APP, 10e3 and 10e5 cfu/ml",complete inhibition
same,Inhibition of bacterial growth,"[3]; 4000 μg/ml APP, 10e3 and 10e5 cfu/ml",complete inhibition
same,Inhibitory effect,[3]; 10e3 or 10e5 cfu/ml,satisfactory inhibitory effect
same,Inhibition of bacterial growth,"[4]; 500 μg/ml APP, 10e3 cfu/ml",slight inhibition
same,Inhibition of bacterial growth,"[4]; 500 μg/ml APP, 10e5 cfu/ml",almost no inhibition
same,Inhibition of bacterial growth,"[4]; 1000 μg/ml APP, 10e3 cfu/ml",intermediate inhibition
same,Inhibition of bacterial growth,"[4]; 1000 μg/ml APP, 10e5 cfu/ml",slight inhibition
same,Inhibition of bacterial growth,"[4]; 2000 μg/ml APP, 10e3 cfu/ml",almost complete inhibition
same,Inhibition of bacterial growth,"[4]; 2000 μg/ml APP, 10e5 cfu/ml",intermediate inhibition
same,Inhibitory effect,[4]; 10e3 or 10e5 cfu/ml,satisfactory inhibitory effect
same,Effect on growth,"[5]; 1000 ppm, chicken soup at 20° C., TCSM010430, APP20010213",No significant effect with 1000 ppm
same,Counts,[5]; [7],undetectable).
same,Total inhibition for,[5]; [7],Total inhibition by 2000 ppm for >42 days (counts
same,Total inhibition (effect on growth of target organism by 2000 ppm APP),[5]; Chicken soup at 20° C. pH 5.8,Ps. fluorescens
same,Growth controlled for,[6],1 days

# Reference: patent US20030203963A1, “Antimicrobial agent” (priority 2001, published 2003)
